These results are taken from BindingDB's records for patent US20240010658 (Ono Pharmaceutical Co., 2024).

The target in this assay is T1, Monoacylglycerol lipase ABHD6 [33-337] (Homo sapiens, UniProt Q9BV23).
T1 construct: 33-337
T1 sequence (Q9BV23 whole entry): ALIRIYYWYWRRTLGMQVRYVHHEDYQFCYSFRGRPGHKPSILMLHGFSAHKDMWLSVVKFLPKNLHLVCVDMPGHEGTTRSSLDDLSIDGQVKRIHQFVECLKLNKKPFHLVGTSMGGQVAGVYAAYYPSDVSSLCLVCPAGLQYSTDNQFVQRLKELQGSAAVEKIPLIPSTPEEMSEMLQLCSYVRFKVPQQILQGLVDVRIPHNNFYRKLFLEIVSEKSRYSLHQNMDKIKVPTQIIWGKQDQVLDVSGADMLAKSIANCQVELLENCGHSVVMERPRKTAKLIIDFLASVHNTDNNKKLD
Briefly: Evaluation of ABHD6 Enzyme Inhibitory Activity Assay. Here is the method: The enzyme reaction was carried out at room temperature using a 384-well microplate made of polypropylene, and wells to which no enzyme was added were designated as a blank group. One hour after the start of the enzyme reaction, methanol containing, as an internal standard substance, arachidonic acid-d8 (Cayman Chemical) and 1% formic acid was added to stop enzymatic reaction. The upper part of the enzyme reaction plate was sealed with aluminum, and centrifugation was performed at 560 g for 5 minutes at room temperature. Then, arachidonic acid as an enzyme reaction product and arachidonic acid-ds as the internal standard substance were quantified with RapidFire (registered trademark)-Mass Spectrometry system.

Consider `CN(C)c1ncc(C(=O)N2C[C@@H]3CC[C@@H](Nc4ccc(Br)nn4)[C@@H]3C2)s1` [US20240010658, Example 2-6], for which the IC50 entry was “in the range around 2 nM”.

For orientation: IC50 means the midpoint of a concentration-inhibition curve. A lower IC50 goes with greater potency.
